Measurements: patent US20130156791A1, “METHODS AND PHARMACEUTICAL COMPOSITIONS FOR THE TREATMENT OF HIV-1 INFECTIONS” (priority 2010, published 2013)

What was measured:
[1] = tested on: HIV-1 envelope mediated hemifusion/fusion of HeLa Env^+ and HeLa CD4^+ cells; test: Hemifusion and cell-cell fusion assays, HeLa Env+ / HeLa CD4+ coculture; assay type: cell-based, human; details: absence or presence of 70 mM KCl for 3 h; 5 μM AMD3100 (Fig. 4d)
[2] = tested on: PHA/IL-2 stimulated human lymphoblasts infected with HIVNDK; test: Plasma membrane depolarization after HIVNDK infection (DiBac4(3), flow cytometry); assay type: cell-based; details: 1 hour of HIVNDK infection (Fig. 4e)
[3] = tested on: CD4^+CXCR4^+ cells infected with HIVNL43
CD4^+CXCR4^+ cells = test: Plasma membrane depolarization of uninfected cells (DiBac4(3), flow cytometry); assay type: cell-based, human; details: 70 mM KCl for 3 h (Fig. 4b,c)
HIVNDK = assay type: cell-based, HIV-1; details: activated T-lymphoblasts (Fig. 2a, S2a)
HIVBaL = assay type: cell-based, HIV-1; details: activated T-lymphoblasts (Fig. 2a, S2a)
[4] = tested on: HIVNDK infected (PHA/IL-2 stimulated) lymphoblasts; assay type: cell-based, human; details: HIVNDK (Fig. 6d)
HIVNL43 = test: Target cell infectivity, Tat-inducible β-galactosidase reporter; assay type: cell-based, HIV-1; details: HIVNL43, MOI 1, β-Gal reporter, 24 h after infection
[5] = tested on: CD4^+CXCR4^+ target cells; assay type: cell-based, human
Description: Supplementary FIG. 1 Pannexin-1-dependent ATP release during HIV-1 infection and during HIV-1 Env-mediated fusion. (a) Effect of apyrase and AMD3100 on target cell viability. The viability of cells incubated for 3 hours with different concentrations of apyrase or AMD3100 (as indicated) and then infected with HIV-1NL43 for 2 days, was assessed by the MTT (3-[4,5-dimethylthiazol-2-yl]-2,5-diphenyl tetrazolium bromide) assay, as detailed in Methods. (b) Effects of apyrase and AMD3100 on ATP release detected during HIV-1 infection. […] After 2 hours of infection, ATP release was determined as described in Methods. […] Cell viability in c was assessed as in a (mean±s.e.m; n=3; *P<0.05). Fusion between HIV-1 Env-expressing cells (that also express Tat protein) and CD4^+CXCR4^+ target cells (that contain Tat-inducible β-galactosidase) was determined by measuring β-galactosidase (β-Gal) activity (d), as described in Methods. (e) Effects of Pannexin-1 knockdowns on HIV-1 Env-mediated fusion, as described in (c). Data in (a), (b), (c), (d) and (e) were determined in 3 independent experiments (mean±s.e.m; *P<0.05).

[6] = tested on: CD4/CXCR4-expressing cells cocultured with Env-expressing cells; test: HIV-1 envelope mediated conjugate formation (actin polymerization between two interacting cells); details: coculture of Env-expressing and CD4/CXCR4-expressing cells (Fig. 1d)
Description: Error bars indicate SD of 3 independent determinations (means±SD; *P<0.05). (d) Effect of ATP depletion by apyrase on HIV-1 envelope mediated actin polymerization. Actin polymerization between two interacting cells was determined in 3 independent experiments (means±SEM; *P<0.05) by fluorescent microscopy (e) Localization of pannexin-1 at the contact site between primary HIV-1-infected lymphoblasts (green) and primary uninfected lymphoblasts, visualized by confocal microscopy.
HeLa cells stably transfected with the Env gene of HIV-1 LAI/IIIB (HeLa Env) and HeLa cells transfected with CD4 (HeLa CD4) were cultured alone or together at a 1:1 ratio in Dulbecco's modified Eagle's medium supplemented with 10% FCS, 2 mM L-glutamine and penicillin/streptomycin (Invitrogen) in the absence or in presence of tested molecules.

Compound	fusion of Env+ and CD4+/CXCR4+ cells [1]	plasma membrane depolarization induced by HIV-1 infection [2]	replication of X4-tropic HIV (HIVNDK)	replication of R5-tropic HIV (HIVBaL)	CD4+ T cell depletion / death of activated CD4+ T lymphoblasts (7-AAD uptake) [4]	viral infection of lymphoblasts (intracellular p24 antigen) [4]	other results
c1cc(CN2CCCNCCNCCCNCC2)ccc1CN1CCCNCCNCCCNCC1 [AMD3100]	reduced	abolished					ATP release during HIV-1 infection [3]: prevented ATP release
[Cl-].[K+] [KCl]	enhanced the fusion						plasma membrane depolarization (CD4^+CXCR4^+ cells): strongly induced membrane depolarization
Nc1ncnc2c1ncn2[C@@H](C=O)O[C@@H](C=O)COP(=O)(O)OP(=O)(O)OP(=O)(O)O [OxATP, oxidized ATP]			blocked the replication	blocked the replication			
Cc1nc(N=Nc2ccc(S(=O)(=O)O)cc2S(=O)(=O)O)c(COP(=O)(O)O)c(C=O)c1O [PPADS]			blocked the replication	blocked the replication	reduces	reduces viral infection	
Cc1ccc(C(=O)Nc2ccc(S(=O)(=O)O)c3cc(S(=O)(=O)O)cc(S(=O)(=O)O)c23)cc1NC(=O)c1cccc(NC(=O)Nc2cccc(C(=O)Nc3cc(C(=O)Nc4ccc(S(=O)(=O)O)c5cc(S(=O)(=O)O)cc(S(=O)(=O)O)c45)ccc3C)c2)c1 [suramin]			blocked the replication	blocked the replication	reduces	reduces viral infection	
apyrase		abolished					HIV-1 infection (target cell infectivity) (HIVNL43): prevented HIV-1 infection; toxicity / target cell viability [5]: non-toxic; conjugate formation revealed by actin polymerization between two interacting cells [6]: abolished conjugate formation
